We go through 25 molecules from patent US7893077B2, “Bisaryl-sulfonamides” (Amgen Inc., priority 2004, dated 2011).

The target in this experiment is T1, PPARγ (Homo sapiens, UniProt P37231).
T1 construct: made in house
T1 sequence (P37231 1-505): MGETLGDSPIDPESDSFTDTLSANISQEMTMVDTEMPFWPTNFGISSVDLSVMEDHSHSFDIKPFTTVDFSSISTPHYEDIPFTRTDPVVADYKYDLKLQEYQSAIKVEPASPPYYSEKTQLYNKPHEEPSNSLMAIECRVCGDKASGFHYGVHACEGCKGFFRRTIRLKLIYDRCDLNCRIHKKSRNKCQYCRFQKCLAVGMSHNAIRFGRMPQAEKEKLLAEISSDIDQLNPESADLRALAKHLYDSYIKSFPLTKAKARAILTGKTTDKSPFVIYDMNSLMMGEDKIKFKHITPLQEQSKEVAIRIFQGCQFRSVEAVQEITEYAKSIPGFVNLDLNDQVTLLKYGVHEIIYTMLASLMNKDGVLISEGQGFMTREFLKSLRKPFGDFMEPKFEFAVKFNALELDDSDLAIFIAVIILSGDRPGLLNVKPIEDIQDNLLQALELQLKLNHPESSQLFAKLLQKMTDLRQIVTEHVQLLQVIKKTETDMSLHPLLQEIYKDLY
The experiment can be described thus: PPARγ ligand binding assay utilizing [3H]-BRL 49653 as the radioligand (filtration). The settings on record: concentration required to reduce by 50% the specific binding of [3H]-BRL 49653. From the text: The compounds of the present invention can be evaluated for modulation of the PPARγ receptor using assays such as those described in Jiang, et al., Nature 391:82-86 (1998), Ricote, et al., Nature 391:79-82 (1998) and Lehmann, et al., J. Biol. Chem. 270(12): 12953-12956 (1995). Alternatively, the compounds can be evaluated for their ability to displace radiolabeled BRL 49653 from a PPARγ-GST fusion protein as follows:
PPARγ-GST fusion protein (prepared according to standard procedures), [^3H]-BRL 49653 having 50 Ci/mmol specific activity, Polyfiltronics Unifilter 350 filtration plate and glutathione-Sepharose® beads (from Pharmacia: washed twice with 10× binding buffer in which BSA and DTI can be left out).
Binding buffer (10 mM Tris-HCl, pH 8.0, 50 mM KCl, 10 mM DTT, 0.02% BSA and 0.0 1% NP-40) is added in 80-μL amounts to the wells of the filtration plate. The test compound is then added in 10 μL of DMSO. The PPARγ-GST fusion protein and radiolabeled BRL compound are premixed in binding buffer containing 10 mM DTT and added in 10-μL amounts to the wells of the plate to provide final concentrations of 1 µg/well of PPARγ-GST fusion protein and 10 nM [^3H]-BRL 49653 compound. The plate is incubated for 15 min. Glutathione-agarose bead is added in 50 μL of binding buffer, and the plate is vigorously shaken for one hour. The plate is washed four times with 200 μL/well of binding buffer (without BSA and DTT). The bottom of the plate is sealed and 200 μL/well of scintillation cocktail is added. The top of the plate is then sealed and the radioactivity is determined.
IC50 values are defined as the concentration of test compounds required to reduce by 50% the specific binding of [^3H]-BRL 49653 and are represented by (+)<30 μM; (++)<10 μM; (+++)<1 μM.

In the case of `CCCNc1nc(NS(=O)(=O)c2ccc(Cl)cc2Cl)ncc1Sc1ccc(S(=O)(=O)N2CCCCC2)cc1` [Compound 12, 2,4-Dichloro-N-{5-[4-(piperidine-1-sulfonyl)-phenylsulfanyl]-4-propylamino-pyrimidin-2-yl}-benzenesulfonamide], the IC50 (as a rule, the concentration that inhibits the measured activity by half) is under 1000 nM.

`CCNc1nc(NS(=O)(=O)c2ccc(Cl)cc2Cl)ncc1Sc1ccc(S(=O)(=O)N2CCCCC2)cc1` [Compound 13, 2,4-Dichloro-N-{4-ethylamino-5-[4-(piperidine-1-sulfonyl) -phenylsulfanyl]-pyrimidin-2-yl}-benzenesulfonamide] showed a concentration for half-maximal inhibition (IC50) of under 1000 nM. Molecule `CCCCNc1nc(NS(=O)(=O)c2ccc(Cl)cc2Cl)ncc1Sc1ccc(S(=O)(=O)N2CCCCC2)cc1` [Compound 14, N-{4-Butylamino-5-[4-(piperidine-1-sulfonyl)-phenylsulfanyl]-pyrimidin-2-yl}-2,4-dichloro-benzenesulfonamide] returned an IC50 of under 1000 nM.

In the case of `CCCN(C)c1nc(NS(=O)(=O)c2ccc(Cl)cc2Cl)ncc1Sc1ccc(S(=O)(=O)N2CCCCC2)cc1` [Compound 15, 2,4-Dichloro-N-{4-(methyl-propyl-amino)-5-[4-(piperidine-1-sulfonyl)-phenylsulfanyl]-pyrimidin-2-yl}-benzenesulfonamide], the half-inhibitory concentration (IC50) was under 1000 nM. Next, `COCCNc1nc(NS(=O)(=O)c2ccc(Cl)cc2Cl)ncc1Sc1ccc(S(=O)(=O)N2CCCCC2)cc1` [Compound 16, 2,4-Dichloro-N-{4-(2-methoxy-ethylamino)-5-[4-(piperidine-1-sulfonyl)-phenylsulfanyl]-pyrimidin-2-yl}-benzenesulfonamide]: under 1000 nM; `CC(C)Nc1nc(NS(=O)(=O)c2ccc(Cl)cc2Cl)ncc1Sc1ccc(S(=O)(=O)N2CCCCC2)cc1` [Compound 17, 2,4-Dichloro-N-{4-isopropylamino-5-[4-(piperidine-1-sulfonyl)-phenylsulfanyl]-pyrimidin-2-yl}-benzenesulfonamide]: under 10000 nM. Next, `CCC(CC)Nc1nc(NS(=O)(=O)c2ccc(Cl)cc2Cl)ncc1Sc1ccc(S(=O)(=O)N2CCCCC2)cc1` [Compound 18, 2,4-Dichloro-N-{4-(1-ethyl-propylamino)-5-[4-(piperidine-1-sulfonyl)-phenylsulfanyl]-pyrimidin-2-yl}-benzenesulfonamide]: under 30000 nM. Next, `O=S(=O)(Nc1ncc(Sc2ccc(S(=O)(=O)N3CCCCC3)cc2)c(NCC2CC2)n1)c1ccc(Cl)cc1Cl` [Compound 19, 2,4-Dichloro-N-{4-(cyclopropylmethyl-amino)-5-[4-(piperidine-1-sulfonyl)-phenylsulfanyl]-pyrimidin-2-yl}-benzenesulfonamide]: under 1000 nM; `CC(C)CNc1nc(NS(=O)(=O)c2ccc(Cl)cc2Cl)ncc1Sc1ccc(S(=O)(=O)N2CCCCC2)cc1` [Compound 20, 2,4-Dichloro-N-{4-isobutylamino-5-[4-(piperidine-1-sulfonyl)-phenylsulfanyl]-pyrimidin-2-yl}-benzenesulfonamide]: under 1000 nM. On to `CC(C)CCNc1nc(NS(=O)(=O)c2ccc(Cl)cc2Cl)ncc1Sc1ccc(S(=O)(=O)N2CCCCC2)cc1` [Compound 21, 2,4-Dichloro-N-{4-(3-methyl-butylamino)-5-[4-(piperidine-1-sulfonyl)-phenylsulfanyl]-pyrimidin-2-yl}-benzenesulfonamide], for which the IC50 is under 10000 nM. The value for `CCCNc1nc(NS(=O)(=O)c2ccc(Cl)cc2)ncc1Sc1ccc(S(=O)(=O)N2CCCCC2)cc1` [Compound 22, 4-Chloro-N-{5-[4-(piperidine-1-sulfonyl)-phenylsulfanyl]-4-propylamino-pyrimidin-2-yl}-benzenesulfonamide] was under 1000 nM. `CCCNc1nc(NS(=O)(=O)c2ccc(OC)cc2)ncc1Sc1ccc(S(=O)(=O)N2CCCCC2)cc1` [Compound 23, 4-Methoxy-N-{5-[4-(piperidine-1-sulfonyl)-phenylsulfanyl]-4-propylamino-pyrimidin-2-yl}-benzenesulfonamide] showed an IC50 of under 10000 nM.

Molecule `CCCNc1nc(NS(=O)(=O)c2ccc(Cl)cc2)ncc1Oc1ccc(S(=O)(=O)N2CCOCC2)cc1` [Compound 24, 4-Chloro-N-{5-[4-(morpholine-4-sulfonyl)-phenoxy]-4-propylamino-pyrimidin-2-yl}-benzenesulfonamide] showed an IC50 of under 10000 nM. The value for `CNc1nc(NS(=O)(=O)c2ccc(Cl)cc2Cl)ncc1Sc1ccc2ccccc2c1` [Compound 25, 2,4-Dichloro-N-[4-methylamino-5-(naphthalen-2-ylsulfanyl) -pyrimidin-2-yl]-benzenesulfonamide] was under 30000 nM.

On to `CN(C)c1nc(NS(=O)(=O)c2ccc(Cl)cc2Cl)ncc1Sc1ccc2ccccc2c1` [Compound 26, 2,4-Dichloro-N-[4-dimethylamino-5-(naphthalen-2-ylsulfanyl) -pyrimidin-2-yl]-benzenesulfonamide], for which the half-maximal inhibitory concentration (IC50) was under 30000 nM. The value for `CCCNc1nc(NS(=O)(=O)c2ccc(Cl)cc2Cl)ncc1Oc1ccc(Cl)c(Cl)c1` [Compound 27, 2,4-Dichloro-N-[5-(3,4-dichloro-phenoxy)-4-propylamino-pyrimidin-2-yl]-benzenesulfonamide] was under 10000 nM; that for `CCCOc1nc(NS(=O)(=O)c2ccc(Cl)cc2Cl)ncc1Sc1ccc(S(=O)(=O)N2CCCCC2)cc1` [Compound 28, 2,4-Dichloro-N-{5-[4-(piperidine-1-sulfonyl)-phenylsulfanyl]-4-propoxy-pyrimidin-2-yl}-benzenesulfonamide] was under 1000 nM. Molecule `CCCOc1nc(NS(=O)(=O)c2ccc(Cl)cc2)ncc1Oc1ccc(S(=O)(=O)N2CCOCC2)cc1` [Compound 29, 4-Chloro-N-{5-[4-(morpholine-4-sulfonyl)-phenoxy]-4-propoxy-pyrimidin-2-yl}-benzenesulfonamide] gave an IC50 of under 10000 nM. As for `COc1nc(NS(=O)(=O)c2ccc(Cl)cc2Cl)ncc1Sc1ccc2ccccc2c1` [Compound 30, 2,4-Dichloro-N-[4-methoxy-5-(naphthalen-2-ylsulfanyl)-pyrimidin-2-yl]-benzenesulfonamide], the concentration for half-maximal inhibition (IC50) was under 10000 nM. The value for `CCCOc1nc(NS(=O)(=O)c2ccc(Cl)cc2Cl)ncc1Oc1ccc(Cl)c(Cl)c1` [Compound 31, 2,4-Dichloro-N-[5-(3,4-dichloro-phenoxy)-4-propoxy-pyrimidin-2-yl]-benzenesulfonamide] was under 10000 nM.

Molecule `CCCSc1nc(NS(=O)(=O)c2ccc(Cl)cc2Cl)ncc1Sc1ccc(S(=O)(=O)N2CCCCC2)cc1` [Compound 32, 2,4-Dichloro-N-{5-[4-(piperidine-1-sulfonyl)-phenylsulfanyl]-4-propylsulfanyl-pyrimidin-2-yl}-benzenesulfonamide] showed an IC50 of under 1000 nM.

Turning to `CCCCc1nc(NS(=O)(=O)c2ccc(Cl)cc2Cl)ncc1Sc1ccc(S(=O)(=O)N2CCCCC2)cc1` [Compound 43, N-{4-Butyl-5-[4-(piperidine-1-sulfonyl)-phenylsulfanyl]-pyrimidin-2-yl}-2,4-dichloro-benzenesulfonamide], the IC50 was under 1000 nM. Next, `CCCCc1nc(NS(=O)(=O)c2ccc(Cl)cc2)ncc1Sc1ccc(S(=O)(=O)N2CCCCC2)cc1` [Compound 44, N-{4-Butyl-5-[4-(piperidine-1-sulfonyl)-phenylsulfanyl]-pyrimidin-2-yl}-4-chloro-benzenesulfonamide]: under 1000 nM; `CCCCc1nc(NS(=O)(=O)c2ccc(OC)cc2)ncc1Sc1ccc(S(=O)(=O)N2CCCCC2)cc1` [Compound 45, N-{4-Butyl-5-[4-(piperidine-1-sulfonyl)-phenylsulfanyl]-pyrimidin-2-yl}-4-methoxy-benzenesulfonamide]: under 1000 nM.

In the case of `CCCCc1nc(NS(=O)(=O)c2ccc(C(F)(F)F)cc2Cl)ncc1Sc1ccc(S(=O)(=O)N2CCCCC2)cc1` [Compound 46, N-{4-Butyl-5-[4-(piperidine-1-sulfonyl)-phenylsulfanyl]-pyrimidin-2-yl}-2-chloro-4-trifluoromethyl-benzenesulfonamide], the 50% inhibitory concentration (IC50) is under 1000 nM.
